Experimental data reported in patent US20020119993A1, “Potentiator for neurotrophin effect” (SANKO COMPANY, LIMITED, priority 1999, published 2002).
Blank lines part the entries; values can stand above or below the molecule they belong to.

Experiments:
[1] = system: sensory neurons in the dorsal root ganglion of the rat spinal cord; experiment: Survival of sensory neurons of the dorsal root ganglion of the rat spinal cord; assay type: cell-based; settings: for Effect on NGF or NT-3 prolonged survival of sensory neurons in the dorsal root ganglion (in words): with NGF or NT-3
Procedure: Effects on Survival of Ganglion Sensory Neurons in Dorsal Spinal Root Ganglion of the Rat Spinal Cord
The dorsal root ganglion of the spinal cord was isolated from fetuses of the SD rat (Nippon SLC) on 17 days definite pregnancy under a stereoscopic microscope. The ganglion was then treated with 1 mg/ml of collagenase, 2 mg/ml of trypsin and 2 mg/ml of DNase I, followed by dispersion in an MEM medium containing 10% bovine fetal serum. Immediately after the sensory neuron suspension was charged in a 12-well plate (Becton Dickinson Labware) which was coated in advance with laminin and poly-D-lysine, a neurotrophin (NGF or NT-3) and 1-amino-3,8-dichloro-6(5H)-phenanthridinone (Compound No. 166) or 6(5H)-phenanthridinone (Compound A) were added. When half of the medium was exchanged on the next day, cytosine arabinoside was added to the culture medium at a final concentration of 10 μM, in order to cause cell death other than to neurons. A neurotrophin and the test compound were added to the medium at their original concentrations. After culturing for a further two days, the neurons were photographed under a microscope and the number of viable neurons was counted.

PC12 cells = experiment: Induction of differentiation (neurite outgrowth) in PC12 cells with neurotrophin; assay type: cell-based, rat; settings: for Ratio of PC12 cells having an outgrowth (%): 72 hours; for Differentiation-induction of PC12 cells by neurotrophin alone (in words): neurotrophin used alone
Description: Induction of Differentiation in […] strain (PC12 cell) derived from Rat Adrenal Medulla
PC12 cells were suspended in a DEM medium containing 10% equine serum and 5% bovine serum and the resulting suspension was charged in a collagen-coated 24-well plate. Twenty-four hours later, the medium was exchanged. A neurotrophin [human recombinant NGF or NT-3 (Austral Biologicals)] and 1-amino-3,8-dichloro-6(5H)-phenanthridinone (Compound No. 166) synthesized in accordance with the process described in Journal of Heterocyclic Chemistry, Z, 597 (1970), were added and cultured for 72 hours. After the medium was discarded, the cells were fixed with 2% glutaraldehyde and were observed under a microscope. The ratio of the cells having a longer outgrowth than the cell body was determined.

[2] = system: neurotrophin receptor Trk; experiment: Neurotrophin receptor Trk activation (phosphotyrosine) in hippocampal and strial tissue slices of matured rat; assay type: cell-based; settings: for Amount of neurotrophin receptor Trk activated in matured rat cerebral tissues: relative to the amount (100) activated by NGF in the strial tissue
Procedure: Enhancing Action of Neurotrophin Response in Hippocampal and Strial Tissue Slices of Matured Rat
Male SD rats (Nippon SLC) were decapitated under anesthesia and the hippocampus and the corpus striatum were isolated. The tissue was cut into 0.2×0.2 mm slices with a “McIlwain Tissue Chopper” (Mickle Laboratory Engineering Company), and were suspended in a DMEM medium. A neurotrophin (NGF or NT-3) and 1-amino-3,8-dichloro-6(5H)-phenanthridinone were added to the suspension and the mixture was kept at 37° C. for 20 minutes. After washing the tissue with ice-cooled tris buffer physiological saline (TBS), the mixture was stirred vigorously and dissolved in TBS containing 1% Triton-X100, 10 μg/ml of leupeptin, 10 µg/ml of aprotinin, 1 mM of phenylmethylsulfonyl fluoride and 1 mM of sodium vanadate. After centrifugation at 14000 g for 15 minutes, the amount of protein in the supernatant was determined with Protein Assay Kit (Bio-Rad Laboratories, Ltd.). Anti-Trk antibody C-14 (Santa Cruz Biotechnology Inc) which specifically binds to Trk, a neurotrophin receptor, was added to the extract which was adjusted to contain an equal amount of protein and mixed at 4° C. for 16 hours. Thus the Trk receptor in the tissue extract formed an immunocomplex with the antibody. The immunocomplex was precipitated with protein A Sepharose beads (Amersham Pharmacia Biotech). The Trk protein collected was separated from other proteins by sodium dodecyl sulfate-polyacrylamide gel electrophoresis and then transferred to a nitrocellulose membrane by Western blot assay. The membrane was reacted with Antibody 4G10 (Upstate Biotechnology Inc) which recognizes phosphotyrosine and the amount of phosphotyrosine of the Trk protein fixed on the membrane was visualized on a film by an enhanced chemiluminescence kit (Amersham Pharmacia Biotech). The film was photographed by a digital camera and the density of the band was determined by digital image analyzing software (Eastman Kodak Company).

[3] = Table 4, NT-3 100 ng/ml + compound 1 μM
[4] = Table 4, neurotrophin-free, compound 1 μM

Molecule: O=c1[nH]c2ccccc2c2ccccc12 [Compound A, 6(5H)-phenanthridinone, reference compound]
Number of viable sensory neurons in the dorsal root ganglion of the rat spinal cord (per mm^2) [1, 3]: 37 ± 3.6 per mm^2
Number of viable sensory neurons in the dorsal root ganglion of the rat spinal cord (per mm^2) [1, 4]: 6 ± 0.8 per mm^2
Effect on NGF or NT-3 prolonged survival of sensory neurons in the dorsal root ganglion (in words) [1]: had no effects

Molecule: Nc1cc(Cl)cc2[nH]c(=O)c3cc(Cl)ccc3c12 [Compound No. 166, 1-amino-3,8-dichloro-6(5H)-phenanthridinone]
Ratio of PC12 cells having an outgrowth (%) (PC12 cells; NGF 5 ng/ml + compound 3 μM): 12 ± 1.3%
Ratio of PC12 cells having an outgrowth (%) (PC12 cells; NGF 5 ng/ml + compound 30 μM): 29 ± 2.6%
Ratio of PC12 cells having an outgrowth (%) (PC12 cells; NGF 20 ng/ml + compound 3 μM): 51 ± 6.5%
Ratio of PC12 cells having an outgrowth (%) (PC12 cells; NGF 20 ng/ml + compound 30 μM): 72 ± 2.0%
Ratio of PC12 cells having an outgrowth (%) (PC12 cells; NGF 50 ng/ml + compound 3 μM): 79 ± 3.0%
Ratio of PC12 cells having an outgrowth (%) (PC12 cells; NGF 50 ng/ml + compound 30 μM): 88 ± 0.7%
Ratio of PC12 cells having an outgrowth (%) (PC12 cells; NT-3 100 ng/ml + compound 3 μM): 62 ± 0.2%
Ratio of PC12 cells having an outgrowth (%) (PC12 cells; NT-3 100 ng/ml + compound 30 μM): 73 ± 3.6%
Effect on NGF-induced differentiation and neurite outgrowth in PC12 cells (in words) (PC12 cells; applied with NGF): potentiated the NGF-induced differentiation and neurite outgrowth in PC12 cells
Effect on differentiation-induction of PC12 cells (in words) (PC12 cells; combined application with NT-3): markedly potentiated the differentiation-induction of PC12 cells
Number of viable sensory neurons in the dorsal root ganglion of the rat spinal cord (per mm^2) ([1]; Table 3, NGF 1 ng/ml + compound 3 μM): 71 ± 1.7 per mm^2
Number of viable sensory neurons in the dorsal root ganglion of the rat spinal cord (per mm^2) ([1]; Table 3, NT-3 100 ng/ml + compound 3 μM): 168 ± 21.1 per mm^2
Number of viable sensory neurons in the dorsal root ganglion of the rat spinal cord (per mm^2) ([1]; Table 3, neurotrophin-free, compound 3 μM): 24 ± 1.6 per mm^2
Number of viable sensory neurons in the dorsal root ganglion of the rat spinal cord (per mm^2) [1, 3]: 133 ± 13.1 per mm^2
Number of viable sensory neurons in the dorsal root ganglion of the rat spinal cord (per mm^2) [1, 4]: 11 ± 4.0 per mm^2
Effect on NGF or NT-3 prolonged survival of sensory neurons in the dorsal root ganglion (in words) [1]: markedly potentiated the effects of NGF or NT-3
Amount of neurotrophin receptor Trk activated in matured rat cerebral tissues ([2]; Corpus striatum, NT-3 100 ng/ml + compound 30 μM): 68
Amount of neurotrophin receptor Trk activated in matured rat cerebral tissues ([2]; Hippocampus, NT-3 100 ng/ml + compound 30 μM): 58
Neurotrophin enhancing action in the adult central nervous system (in words) ([2]; matured rat cerebral tissue slices, Table 5): has a neurotrophin enhancing action in the adult central nervous system

Molecule: NGF: human recombinant NGF (nerve growth factor), a neurotrophin (Austral Biologicals)
Ratio of PC12 cells having an outgrowth (%) (PC12 cells; neurotrophin alone 5 ng/ml, compound-free): 8 ± 0.9%
Ratio of PC12 cells having an outgrowth (%) (PC12 cells; neurotrophin alone 20 ng/ml, compound-free): 27 ± 2.8%
Ratio of PC12 cells having an outgrowth (%) (PC12 cells; neurotrophin alone 50 ng/ml, compound-free): 57 ± 3.6%
Differentiation-induction of PC12 cells by neurotrophin alone (in words) (PC12 cells): induced differentiation of PC12 cells
Number of viable sensory neurons in the dorsal root ganglion of the rat spinal cord (per mm^2) ([1]; Table 3, neurotrophin alone 1 ng/ml, compound-free): 44 ± 5.5 per mm^2

Amount of neurotrophin receptor Trk activated in matured rat cerebral tissues ([2]; Corpus striatum, NT-3 100 ng/ml alone): 12
Amount of neurotrophin receptor Trk activated in matured rat cerebral tissues ([2]; Hippocampus, NT-3 100 ng/ml alone): 27
Molecule: NT-3: neurotrophin-3, a neurotrophin (Austral Biologicals)
Ratio of PC12 cells having an outgrowth (%) (PC12 cells; neurotrophin alone 100 ng/ml, compound-free): 2 ± 0.6%
Differentiation-induction of PC12 cells by neurotrophin alone (in words) (PC12 cells): did not cause any sufficient differentiation-induction by itself
Number of viable sensory neurons in the dorsal root ganglion of the rat spinal cord (per mm^2) ([1]; Table 3, neurotrophin alone 100 ng/ml, compound-free): 19 ± 5.0 per mm^2
Number of viable sensory neurons in the dorsal root ganglion of the rat spinal cord (per mm^2) ([1]; Table 4, neurotrophin alone 100 ng/ml, compound-free): 33 ± 4.9 per mm^2
